Source: US20030109418A1, “Methods for identifying compounds for inhibition of neoplastic lesions, and pharmaceutical compositions containing such compounds” (priority 1999, published 2003)
Read-outs that look alike come from different tables or passages of the source.

Experiments:
[1] = biological target: T1, purified cyclooxygenase (Type 1, COX-I) from ram seminal vesicles (Ovis aries, UniProt P05979); assay: COX inhibition assay, purified cyclooxygenase; format: biochemical; conditions: for COX Inhibition: qualitative activity profile
T1 construct: using purified cyclooxygenase from ram seminal vesicles as described previously; tissue Cayman Chemical, Ann Arbor, Mich; (named in the general protocol only); host or cells: ram seminal vesicles
T1 sequence (P05979 25-600): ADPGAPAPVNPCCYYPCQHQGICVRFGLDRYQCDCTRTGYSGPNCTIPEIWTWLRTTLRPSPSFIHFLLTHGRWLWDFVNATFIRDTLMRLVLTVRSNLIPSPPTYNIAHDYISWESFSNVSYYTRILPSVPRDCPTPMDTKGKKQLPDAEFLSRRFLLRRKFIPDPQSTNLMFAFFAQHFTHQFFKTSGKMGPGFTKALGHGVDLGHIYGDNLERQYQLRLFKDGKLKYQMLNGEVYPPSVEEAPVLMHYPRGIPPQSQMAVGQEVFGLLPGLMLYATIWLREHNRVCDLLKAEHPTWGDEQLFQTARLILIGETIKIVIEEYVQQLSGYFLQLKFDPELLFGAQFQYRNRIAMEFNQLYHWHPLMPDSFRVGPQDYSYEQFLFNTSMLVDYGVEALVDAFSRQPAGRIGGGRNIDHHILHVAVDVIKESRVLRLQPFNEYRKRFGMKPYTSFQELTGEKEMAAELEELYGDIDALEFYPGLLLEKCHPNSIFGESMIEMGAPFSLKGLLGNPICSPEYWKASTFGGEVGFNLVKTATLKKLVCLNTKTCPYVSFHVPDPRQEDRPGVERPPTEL

[2] = system: cGMP PDE purified from human colon HT-29 cultured tumor cells; assay: cGMP PDE inhibition assay; format: biochemical; conditions: for PDE Inhibition: qualitative activity profile
[3] = system: HT-29 human colon carcinoma cell line; assay: Growth inhibition, SRB assay, HT-29; format: cell-based; parameters: Growth Inhibition: key to the marks not given beside the values; conditions: for Growth Inhibition: qualitative activity profile; for IC50: HT-29 treated for 6 days, SRB assay, read-out: Growth inhibition (IC50)
[4] = system: premalignant lesions in mouse mammary gland organ culture; assay: Mammary gland organ culture model; format: cell-based; conditions: for Mammary Gland Organ Culture: qualitative activity profile; on mammary gland organ culture: key: −: Not active; +: Slightly active; ++: Moderately active; +++: Strongly active; ++++: Highly active
Excerpt: Test compounds identified by the above methods can be tested for antineoplastic activity by their ability to inhibit the incidence of pre-neoplastic lesions in a mammary gland organ culture system. This mouse mammary gland organ culture technique has been successfully used by other investigators to study the effects of known antineoplastic agents such as certain NSAIDs, retinoids, tamoxifen, selenium, and certain natural products, and is useful for validation of the screening method of the present invention.
For example, female BALB/c mice can be treated with a combination of estradiol and progesterone daily, in order to prime the glands to be responsive to hormones in vitro. The animals are sacrificed, and thoracic mammary glands are excised aseptically and incubated for ten days in growth media supplemented with insulin, prolactin, hydrocortisone, and aldosterone. DMBA (7,12-dimethylbenz(a)anthracene) is added to medium to induce the formation of premalignant lesions. Fully developed glands are then deprived of prolactin, hydrocortisone, and aldosterone, resulting in the regression of the glands but not the pre-malignant lesions.
The test compound is dissolved in DMSO and added to the culture media for the duration of the culture period. At the end of the culture period, the glands are fixed in 10% formalin, stained with alum carmine, and mounted on glass slides. The incidence of forming mammary lesions is the ratio of the glands with mammary lesions to […]. The incidence of mammary lesions in test compound treated glands is compared with that of the untreated glands.
The extent of the area occupied by the mammary lesions can be quantitated by projecting an image of the gland onto a digitation pad. The area covered by the gland is traced on the pad and considered as 100% of the area. The space covered by each of the non-regressed structures is also outlined on the digitization pad and quantitated by the computer.
Mammary gland organ culture experiment were performed as previously described (Mehta and Moon, Cancer Research, 46: 5832-5835, 1986). […] The data support the hypothesis that cyclooxygenase inhibition is not necessary for the anti-neoplastic properties of desired compounds.

[5] = system: HT-29 colon adenocarcinoma cells; assay: Apoptosis by DNA fragmentation assay in HT-29; format: cell-based, human; conditions: qualitative activity profile; further: key: −: Not active; +: Slightly active; ++: Moderately active; +++: Strongly active; ++++: Highly active
[6] = biological target: T2, cGMP binding sites of the GST-cGB-PDE5 protein (Homo sapiens, UniProt O76074); assay: cGMP binding assay with GST-cGB-PDE5 fusion protein; conditions: for competition with cGMP binding at high concentration: 100 μM competitor, cGMP 2 μM
T2 construct: made in house; host or cells: E. coli BL21 (DE3)

HT-29 cells = assay: Apoptosis and necrosis by morphology (acridine orange and ethidium bromide); format: cell-based, human; conditions: HT-29 treated for 6 days
Excerpt: Apoptosis occurs naturally during normal tissue turnover and during embryonic development of organs and limbs. Apoptosis also is induced by cytotoxic T-lymphocytes and natural killer cells, by ionizing radiation and by certain chemotherapeutic drugs. Inappropriate regulation of apoptosis is thought to play an important role in many pathological conditions including cancer, AIDS, or Alzheimer's disease, etc. Compounds can be screened for induction of apoptosis using cultures of tumor cells maintained under conditions as described above. Treatment of cells with test compounds involves either pre- or post-confluent cultures and treatment for two to seven days at various concentrations. Apoptotic cells are measured in both the attached and “floating” compartments of the cultures. Both compartments are collected by removing the supernatant, trypsinizing the attached cells, and combining both preparations following a centrifugation wash step (10 minutes, 2000 rpm). The protocol for treating tumor cell cultures with sulindac and related compounds to obtain a significant amount of apoptosis has been described in the literature. (See, Piazza, G. A., et al., Cancer Research, 55:3110-16, 1995, which is incorporated herein by reference). The novel features include collecting both floating and attached cells, identification of the optimal treatment times and dose range for observing apoptosis, and identification of optimal cell culture conditions.
Following treatment with a compound, cultures can be assayed for apoptosis and necrosis by florescent microscopy following labeling with acridine orange and ethidium bromide. The method for measuring apoptotic cell number has previously been described by Duke & Cohen, “Morphological And Biochemical Assays Of Apoptosis,” Current Protocols In Immunology, Coligan et al., eds., 3.17.1-3.17.16 (1992, which is incorporated herein by reference).
For example, floating and attached cells can be collected by trypsinization and washed three times in PBS. Aliquots of cells can be centrifuged. The pellet can then be re-suspended in media and a dye mixture containing acridine orange and ethidium bromide prepared in PBS and mixed gently. The mixture can then be placed on a microscope slide and examined for morphological features of apoptosis.
Reference compounds and test compounds were analyzed for their novel PDE inhibitory activity in accordance with the protocols for the assay, supra. […] Apoptotic and necrotic cell death was determined previously (Duke and Cohen, In: Current Protocols in Immunology, 3.17.1-3.17.16, New York, John Wiley and Sons, 1992). […] All data were collected from the same experiment.
The apoptosis inducing activity for a series of phosphodiesterase inhibitors was determined. HT-29 cell were treated for 6 days with various inhibitors of phosphodiesterase. Apoptosis and necrosis were determined morphologically after acridine orange and ethidium bromide labeling in accordance with the assay described, supra.

[7] = biological target: T3, PDE peak A (PDE5) from SW480 cells (Homo sapiens, UniProt O76074); assay: cGMP hydrolysis inhibition, PDE peak A from SW480; format: biochemical
T3 construct: endogenous in cells; host or cells: SW480 colon cancer cells, DEAE-Trisacryl M fraction

[8] = system: cGMP and cAMP levels in HT-29 cells; assay: Cyclic nucleotide levels in cultured cells by radioimmunoassay; format: cell-based, human; conditions: HT-29 cells treated 30 minutes

CC(=O)NC(CSC12CC(=O)OC1(C)/C(=C/c1ccc(S(C)(=O)=O)cc1)c1ccc(F)cc12)C(=O)O (racemic) [D, rac-(E)-1-(butan-1′,4′-olido)-[3′,4′: 1,2]-6-fluoro-2-methyl-3-(p-methylsulfonylbenzylidene)-1S-indanyl-N-acetylcysteine]
Cyclooxygenase inhibitory activity, % Inhibition at 100 μM [1]: <25% | COX Inhibition [1]: − | PDE Inhibition [2]: − | Growth-inhibitory activity, % Inhibition at 100 μM [3]: 78% | Growth Inhibition [3]: ++ | Mammary Gland Organ Culture [4]: − | Apoptosis [5]: −

CCCCOC1C2OP(=O)(O)OCC2OC1n1cnc2c(N)ncnc21 (centres unmarked) [2′-O-butyl-cAMP]
competition with cGMP in binding of GST-cGB-PDE5 ([6]; 3H-cGMP 2 μM): did not compete with cGMP in binding

CCCCOC1C2OP(=O)(O)OCC2OC1n1cnc2c(=O)[nH]c(N)nc21 (centres unmarked) [2′-O-butyl-cGMP]
competition with cGMP in binding of GST-cGB-PDE5 ([6]; 3H-cGMP 2 μM): did not compete with cGMP in binding

COc1nc2c([nH]1)c(=O)n(C)c(=O)n2CC(C)C [8-methoxy-IBMX]
% Apoptosis (HT-29 cells): 2% | % Necrosis (HT-29 cells): 1% | IC50 [3]: > 200 µM

Nc1nc2c(nc(Br)n2[C@@H]2O[C@@H]3COP(=O)(O)O[C@H]3[C@H]2O)c(=O)[nH]1 [Compound 8-bromo-cGMP]
competition with cGMP binding at high concentration [6]: can partially compete

CC1=C(CC(=O)O)c2cc(F)ccc2/C1=C\c1ccc(Cl)cc1 [Compound C, (Z)-5-Fluoro-2-methyl-1-(p-chlorobenzylidene)-3-acetic acid]
cGMP PDE inhibitory activity, % Inhibition at 10 μM ([2]; 10 μM): <25% | Growth-inhibitory activity, % Inhibition at 100 μM [3]: 80%

Nc1ncnc2c1ncn2[C@@H]1O[C@@H]2COP(=O)(O)O[C@H]2[C@H]1O [Cyclic AMP]
competition with cGMP in binding of GST-cGB-PDE5 [6]: did not compete with cGMP in binding

O=c1[nH]cnc2c1ncn2[C@@H]1O[C@@H]2COP(=O)(O)O[C@H]2[C@H]1O [Cyclic IMP]
competition with cGMP binding at high concentration [6]: can partially compete

CC1=C(CC(=O)N(C2CCCCC2)C2CCCCC2)c2cc(F)ccc2/C1=C\c1ccc(S(C)(=O)=O)cc1 [F, (Z)-5-Fluoro-2-methyl-1-(p-methylsulfonylbenzylidene)-3-indenylacetamide, N,N′-dicyclohexyl]
COX Inhibition [1]: − | PDE Inhibition [2]: − | Growth Inhibition [3]: ++ | Mammary Gland Organ Culture [4]: − | Apoptosis [5]: +

CC(C)Cn1c(=O)n(C)c(=O)c2[nH]cnc21 [IBMX]
% Apoptosis (HT-29 cells): 4% | % Necrosis (HT-29 cells): 13% | IC50 [3]: > 100 µM

CC1(C)C(=O)Nc2ccc(C3=NNC(=O)CC3)cc21 [Indolidan]
Ratio (IC50 Peak A/Peak B) [7]: <0.31

Clc1cccc(Nc2nnc(-c3ccccc3)c3ccccc23)c1 [MY5445, 1-(3-chloroanilino)-4-phenyphthalazine]
Cyclooxygenase inhibitory activity, % Inhibition at 100 μM [1]: 94% | COX Inhibition [1]: ++++ | % Apoptosis (HT-29 cells): 80% | % Necrosis (HT-29 cells): 5% | PDE Inhibition [2]: +++ | IC50 [3]: 5 µM | Growth Inhibition [3]: +++ | Mammary Gland Organ Culture [4]: + | Apoptosis [5]: +++

CCCCOc1cc(CC2CNC(=O)N2)ccc1OC (centres unmarked) [RO-20-1724]
% Apoptosis (HT-29 cells): 11% | % Necrosis (HT-29 cells): 2% | IC50 [3]: > 200 µM

COc1ccc(C2CNC(=O)C2)cc1OC1CCCC1 (centres unmarked) [Rolipram]
effect on cAMP levels [8]: increased cAMP

CCCOc1ccccc1-c1nc2nn[nH]c2c(=O)[nH]1 [Zaprinast]
competition with cGMP in binding of GST-cGB-PDE5 ([6]; 3H-cGMP 2 μM): do not bind to the cGMP binding sites of PDE5

Nc1ccn([C@@H]2O[C@@H]3COP(=O)(O)O[C@H]3[C@H]2O)c(=O)n1 [cCMP]
competition with cGMP in binding of GST-cGB-PDE5 ([6]; 3H-cGMP 2 μM): did not compete with cGMP in binding

O=c1ccn([C@@H]2O[C@@H]3COP(=O)(O)O[C@H]3[C@H]2O)c(=O)[nH]1 [cUMP]
competition with cGMP in binding of GST-cGB-PDE5 ([6]; 3H-cGMP 2 μM): did not compete with cGMP in binding

CC1=C(CC(=O)O)c2cc(F)ccc2/C1=C\c1ccc([S+](C)[O-])cc1 (centres unmarked) [sulindac]
inhibition of the formation of premalignant lesions ([4]; mammary gland organ culture): effectively inhibit the formation of premalignant lesions

rac-(E)-1-(butan-1′, 4′-olido)-[3′, 4′: 1,2]-6-fluoro-2-methyl-3-(p-methylsulfonylbenzylidene)-1S-indanyl-glutathione)
COX Inhibition [1]: − | PDE Inhibition [2]: − | Growth Inhibition [3]: ++ | Mammary Gland Organ Culture [4]: − | Apoptosis [5]: −

ribo-(E)-1-Triazolo-[2′, 3′: 1″, 3″]-1-(butan-1′, 4′-olido)-[3′, 4′: 1, 2]-6-flouro-2-methyl-3-(p-methylsulfonylbenzylidene)-indan [G]
COX Inhibition [1]: − | PDE Inhibition [2]: − | Growth Inhibition [3]: +++ | Mammary Gland Organ Culture [4]: +++ | Apoptosis [5]: ++
